Experimental findings from patent US5502035A, “N-terminus modified analogs of LHRH” (Tap Holdings Inc., priority 1994, dated 1996) are described below.

Usually Kb stands for the equilibrium dissociation constant of an antagonist, usually derived from a functional assay.

Non-standard residues stand in square brackets, D forms with d. Residues, ends and D or L forms follow the SMILES beside them. Groups on a side chain read outwards from the residue. *: point of attachment. Shikimoyl = O=C(C1=C[C@@H](O)[C@@H](O)[C@H](O)C1)*; dPhe(4-Cl) = N[C@H](Cc1ccc(Cl)cc1)C(=O)O; d2Nal = N[C@H](Cc1ccc2ccccc2c1)C(=O)O; Lys(iPr) = CC(C)NCCCC[C@H](N)C(=O)O; NMeY = CN[C@@H](Cc1ccc(O)cc1)C(=O)O; hArg = N=C(N)NCCCC[C@H](N)C(=O)O; d3Pal = N[C@H](Cc1cccnc1)C(=O)O; Isonicotinoyl = O=C(c1ccncc1)*; Nicotinoyl = O=C(c1cccnc1)*; 2Furoyl = O=C(c1ccco1)*; X1 = O=C([C@@H]1CCCO1)*; X6 = O=C(c1ccoc1)*; GABA = NCCCC(=O)O; βAla = NCCC(=O)O

For this assay, the target named is T1, LHRH (Rattus norvegicus, UniProt P30969).
T1 construct: endogenous in cells; host or cells: rat pituitary cells (own knowledge of the cited Haviv 1989 method)
T1 sequence (P30969 1-327): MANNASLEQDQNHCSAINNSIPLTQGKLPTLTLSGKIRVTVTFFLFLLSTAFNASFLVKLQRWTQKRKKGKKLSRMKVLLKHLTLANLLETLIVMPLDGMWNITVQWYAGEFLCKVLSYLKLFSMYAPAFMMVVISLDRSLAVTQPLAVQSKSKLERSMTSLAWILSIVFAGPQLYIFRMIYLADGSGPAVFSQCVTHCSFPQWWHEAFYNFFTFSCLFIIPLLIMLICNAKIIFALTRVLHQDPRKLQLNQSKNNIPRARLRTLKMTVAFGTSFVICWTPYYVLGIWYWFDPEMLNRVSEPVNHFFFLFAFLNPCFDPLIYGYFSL
Nature of the assay: in vitro test for LHRH antagonist potency (pA2). The assay is classed as cell-based. The following applies: negative logarithm of the antagonist concentration required to shift the response curve produced by the agonist leuprolide to two-fold higher concentration. The procedure, abridged:
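Antagonism read against the agonist leuprolide on rat LHRH receptor; value is pA2, the −log of antagonist concentration that doubles the agonist concentration needed for the same response.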
Regarding `CC(C)C[C@H](NC(=O)[C@@H](CCCCNC(=O)c1cccnc1)NC(=O)[C@H](Cc1ccc(O)cc1)N(C)C(=O)[C@H](CO)NC(=O)[C@@H](Cc1cccnc1)NC(=O)[C@@H](Cc1ccc(Cl)cc1)NC(=O)[C@@H](Cc1ccc2ccccc2c1)NC(=O)c1ccoc1)C(=O)N[C@@H](CCCCNC(C)C)C(=O)N1CCC[C@H]1C(=O)N[C@H](C)C(N)=O` [Example 72b, N-3-Furoyl-D2Nal-D4ClPhe-D3Pal-Ser-NMeTyr-DLys(Nic)-Leu-Lys(Isp)-Pro-DAlaNH2] (X6-[d2Nal][dPhe(4-Cl)][d3Pal]S[NMeY][dK](Nicotinoyl)L[Lys(iPr)]P[dA]-NH2), the Kb was 0.0851 nM.
For the molecule `CC[C@H](C)[C@H](NC(=O)[C@@H](CCCCNC(=O)C1=C[C@@H](O)[C@@H](O)[C@H](O)C1)NC(=O)[C@H](Cc1ccc(O)cc1)N(C)C(=O)[C@H](CO)NC(=O)[C@@H](Cc1cccnc1)NC(=O)[C@@H](Cc1ccc(Cl)cc1)NC(=O)[C@@H](Cc1ccc2ccccc2c1)NC(=O)CNC(=O)C1=C[C@@H](O)[C@@H](O)[C@H](O)C1)C(=O)N[C@@H](CCCNC(=N)N)C(=O)N1CCC[C@H]1C(=O)N[C@H](C)C(N)=O` [Example 18a, N-Shikimyl-Gly-D2Nal-D4ClPhe-D3Pal-Ser-NMeTyr-DLys(Shik)-Ile-Arg-Pro-DAlaNH2] (Shikimoyl-G[d2Nal][dPhe(4-Cl)][d3Pal]S[NMeY][dK](Shikimoyl)IRP[dA]-NH2), the Kb is 0.0166 nM.
Under `CC(C)C[C@H](NC(=O)[C@@H](CCCCNC(=O)c1cccnc1)NC(=O)[C@H](Cc1ccc(O)cc1)N(C)C(=O)[C@H](CO)NC(=O)[C@@H](Cc1cccnc1)NC(=O)[C@@H](Cc1ccc(Cl)cc1)NC(=O)[C@@H](Cc1ccc2ccccc2c1)NC(=O)CCCNC(=O)c1cccnc1)C(=O)N[C@@H](CCCCNC(C)C)C(=O)N1CCC[C@H]1C(=O)N[C@H](C)C(N)=O` [Example 6c, N-Nicotinyl-4Aminobutyryl-D2Nal-D4ClPhe-D3Pal-Ser-NMeTyr-DLys(N-epsilon-Nicotinyl) -Leu-Lys(N-epsilon-Isopropyl)-Pro-DAlaNH2] ({Nicotinoyl-GABA}-[d2Nal][dPhe(4-Cl)][d3Pal]S[NMeY][dK](Nicotinoyl)L[Lys(iPr)]P[dA]-NH2) stands 0.0224 nM; under `CC(C)C[C@H](NC(=O)[C@@H](CCCCNC(=O)CNC(=O)CNC(=O)c1cccnc1)NC(=O)[C@H](Cc1ccc(O)cc1)N(C)C(=O)[C@H](CO)NC(=O)[C@@H](Cc1cccnc1)NC(=O)[C@@H](Cc1ccc(Cl)cc1)NC(=O)[C@@H](Cc1ccc2ccccc2c1)NC(=O)CNC(=O)C1=C[C@@H](O)[C@@H](O)[C@H](O)C1)C(=O)N[C@@H](CCCNC(=N)N)C(=O)N1CCC[C@H]1C(=O)N[C@H](C)C(N)=O` [Example 20, N-Shikimyl-Gly-D2Nal-D4ClPhe-D3Pal-Ser-NMeTyr-DLys(GlyGlyNic)-Leu-Arg-Pro-DAlaNH2] (Shikimoyl-G[d2Nal][dPhe(4-Cl)][d3Pal]S[NMeY][dK]([Gly-Gly-Nicotinoyl])LRP[dA]-NH2), 0.0263 nM; under `CC(C)C[C@H](NC(=O)[C@@H](CCCCNC(=O)C1=C[C@@H](O)[C@@H](O)[C@H](O)C1)NC(=O)[C@H](Cc1ccc(O)cc1)N(C)C(=O)[C@H](CO)NC(=O)[C@@H](Cc1cccnc1)NC(=O)[C@@H](Cc1ccc(Cl)cc1)NC(=O)[C@@H](Cc1ccc2ccccc2c1)NC(=O)C1=C[C@@H](O)[C@@H](O)[C@H](O)C1)C(=O)N[C@@H](CCCCNC(=N)N)C(=O)N1CCC[C@H]1C(=O)N[C@H](C)C(N)=O` [Example 79, N-Shikimyl-D2Nal-D4ClPhe-D3Pal-Ser-NMeTyr-DLys(Shik)-Leu-Harg-Pro-DAlaNH2] (Shikimoyl-[d2Nal][dPhe(4-Cl)][d3Pal]S[NMeY][dK](Shikimoyl)L[hArg]P[dA]-NH2), 0.0195 nM.
With `CC(C)C[C@H](NC(=O)[C@@H](CCCCNC(=O)c1cccnc1)NC(=O)[C@H](Cc1ccc(O)cc1)N(C)C(=O)[C@H](CO)NC(=O)[C@@H](Cc1cccnc1)NC(=O)[C@@H](Cc1ccc(Cl)cc1)NC(=O)[C@@H](Cc1ccc2ccccc2c1)NC(=O)c1ccncc1)C(=O)N[C@@H](CCCCNC(C)C)C(=O)N1CCC[C@H]1C(=O)N[C@H](C)C(N)=O` [Example 72g, N-Isonicotinyl-D2Nal-D4ClPhe-D3Pal-Ser-NMeTyr-DLys(Nic)-Leu-Lys(Isp)-Pro-DAlaNH2] (Isonicotinoyl-[d2Nal][dPhe(4-Cl)][d3Pal]S[NMeY][dK](Nicotinoyl)L[Lys(iPr)]P[dA]-NH2) the figure was 0.02 nM; with `CC(C)C[C@H](NC(=O)[C@@H](CCCCNC(=O)C1=C[C@@H](O)[C@@H](O)[C@H](O)C1)NC(=O)[C@H](Cc1ccc(O)cc1)N(C)C(=O)[C@H](CO)NC(=O)[C@@H](Cc1cccnc1)NC(=O)[C@@H](Cc1ccc(Cl)cc1)NC(=O)[C@@H](Cc1ccc2ccccc2c1)NC(=O)CCNC(=O)c1cccnc1)C(=O)N[C@@H](CCCNC(=N)N)C(=O)N1CCC[C@H]1C(=O)N[C@H](C)C(N)=O` [Example 27d, N-Nicotinyl-3-Aminopropionyl-D2Nal-D4ClPhe-D3Pal-Ser-NMeTyr-DLys(Shikimyl)-Leu-Arg-Pro-DAlaNH 2] ({Nicotinoyl-βAla}-[d2Nal][dPhe(4-Cl)][d3Pal]S[NMeY][dK](Shikimoyl)LRP[dA]-NH2), 0.00178 nM; with `CC(C)C[C@H](NC(=O)[C@@H](CCCCNC(=O)c1cccnc1)NC(=O)[C@H](Cc1ccc(O)cc1)N(C)C(=O)[C@H](CO)NC(=O)[C@@H](Cc1cccnc1)NC(=O)[C@@H](Cc1ccc(Cl)cc1)NC(=O)[C@@H](Cc1ccc2ccccc2c1)NC(=O)CCNC(=O)[C@@H]1CCCO1)C(=O)N[C@@H](CCCCNC(C)C)C(=O)N1CCC[C@H]1C(=O)N[C@H](C)C(N)=O` [Example 96, N (S)-2-Tetrahydrofuroyl-Bala-D2Nal-D4ClPhe-D3Pal-Ser-NMeTyr-DLys(Nic)-Leu-Lys(Isp)-Pro-DAlaNH2] ({X1-βAla}-[d2Nal][dPhe(4-Cl)][d3Pal]S[NMeY][dK](Nicotinoyl)L[Lys(iPr)]P[dA]-NH2), 0.0275 nM.
For the molecule `CC(C)C[C@H](NC(=O)[C@@H](CCCCNC(=O)c1cccnc1)NC(=O)[C@H](Cc1ccc(O)cc1)NC(=O)[C@H](CO)NC(=O)[C@@H](Cc1cccnc1)NC(=O)[C@@H](Cc1ccc(Cl)cc1)NC(=O)[C@@H](Cc1ccc2ccccc2c1)NC(=O)CNC(=O)C1CCCO1)C(=O)N[C@@H](CCCCNC(C)C)C(=O)N1CCC[C@H]1C(=O)N[C@H](C)C(N)=O` (mixture of isomers) [Example 91, N (R,S)-2-Tetrahydrofuroyl-Gly-D2Nal-D4ClPhe-D3Pal-Ser-Tyr-DLys(N-epsilon-Nicotinyl) -Leu-Lys(N-epsilon-Isopropyl)-Pro-DAlaNH2], the Kb is 0.00219 nM.
With `CC(C)C[C@H](NC(=O)[C@@H](CCCCNC(=O)C1=C[C@@H](O)[C@@H](O)[C@H](O)C1)NC(=O)[C@H](Cc1ccc(O)cc1)N(C)C(=O)[C@H](CO)NC(=O)[C@@H](Cc1cccnc1)NC(=O)[C@@H](Cc1ccc(Cl)cc1)NC(=O)[C@@H](Cc1ccc2ccccc2c1)NC(=O)CNC(=O)c1ccco1)C(=O)N[C@@H](CCCCNC(=N)N)C(=O)N1CCC[C@H]1C(=O)N[C@H](C)C(N)=O` [Example 25c, N-(2-Furoyl)-Gly-D2Nal-D4ClPhe-D3Pal-Ser-NMeTyr-DLys(Shik)-Leu-Harg-Pro-DAlaNH2] (2Furoyl-G[d2Nal][dPhe(4-Cl)][d3Pal]S[NMeY][dK](Shikimoyl)L[hArg]P[dA]-NH2) the figure was 0.0017 nM.
